From US9708331B2, “Metabotrophic glutamate receptor 5 modulators and methods of use thereof” (SUNOVION PHARMACEUTICALS INC., priority 2011, dated 2017)

Target: mGluR5 (Homo sapiens, UniProt P41594)
Test: mGluR5 PAM EC50 (positive allosteric modulator potency)
Format: cell-based

mGluR5, sequence (P41594 21-1212): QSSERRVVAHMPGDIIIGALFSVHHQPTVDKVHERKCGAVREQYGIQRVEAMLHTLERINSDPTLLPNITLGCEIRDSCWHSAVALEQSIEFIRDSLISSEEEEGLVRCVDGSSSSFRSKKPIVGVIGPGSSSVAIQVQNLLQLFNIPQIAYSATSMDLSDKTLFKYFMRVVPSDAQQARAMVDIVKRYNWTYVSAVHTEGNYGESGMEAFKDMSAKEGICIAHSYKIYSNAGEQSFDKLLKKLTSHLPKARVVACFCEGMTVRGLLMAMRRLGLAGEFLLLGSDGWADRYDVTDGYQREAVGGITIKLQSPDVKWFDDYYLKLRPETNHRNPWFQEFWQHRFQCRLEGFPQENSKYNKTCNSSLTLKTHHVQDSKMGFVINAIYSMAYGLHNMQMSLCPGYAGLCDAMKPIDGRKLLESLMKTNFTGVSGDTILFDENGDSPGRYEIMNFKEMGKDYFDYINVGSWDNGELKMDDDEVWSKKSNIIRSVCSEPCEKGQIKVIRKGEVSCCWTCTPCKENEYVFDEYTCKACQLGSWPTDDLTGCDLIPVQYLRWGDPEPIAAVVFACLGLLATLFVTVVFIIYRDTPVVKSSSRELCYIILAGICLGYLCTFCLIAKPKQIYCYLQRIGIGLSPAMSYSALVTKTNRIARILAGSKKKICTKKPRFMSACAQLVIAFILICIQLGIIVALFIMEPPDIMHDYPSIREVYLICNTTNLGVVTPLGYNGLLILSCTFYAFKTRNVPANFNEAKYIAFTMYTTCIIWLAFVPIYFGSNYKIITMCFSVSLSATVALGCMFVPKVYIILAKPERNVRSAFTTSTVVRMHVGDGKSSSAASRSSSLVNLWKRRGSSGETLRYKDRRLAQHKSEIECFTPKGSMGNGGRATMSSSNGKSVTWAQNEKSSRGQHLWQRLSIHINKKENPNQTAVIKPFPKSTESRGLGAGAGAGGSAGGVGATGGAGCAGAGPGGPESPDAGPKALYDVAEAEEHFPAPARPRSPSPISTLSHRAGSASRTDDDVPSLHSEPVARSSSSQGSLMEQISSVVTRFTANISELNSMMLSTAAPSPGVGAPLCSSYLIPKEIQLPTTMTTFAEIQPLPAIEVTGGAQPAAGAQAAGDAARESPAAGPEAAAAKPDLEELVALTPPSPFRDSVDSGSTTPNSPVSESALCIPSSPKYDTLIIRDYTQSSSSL

| SMILES | EC50 [nM] |
| --- | --- |
| CC1(C)CCc2nc3cc(-c4cnc(-c5ccccn5)s4)ccc3c(=O)n2C1 [Example 6.28, 8,8-dimethyl-3-(2-(pyridin-2-yl)thiazol-5-yl)-8,9-dihydro-6H-pyrido[2,1-b]quinazolin-11(7H)-one] | 300 to 1000 |
| CC1CCn2c(nc3cc(C#Cc4ccccn4)cnc3c2=O)C1 (single isomer, unassigned) [Example 2.17b] | 300 to 1000 |
| COc1ccc(C#Cc2ccc3c(=O)n4c(nc3c2)CCC(C)(C)C4)nc1 [Example 2.40, 3-((5-methoxypyridin-2-yl)ethynyl)-8,8-dimethyl-8,9-dihydro-6H-pyrido[2,1-b]quinazolin-11(7H)-one] | 30 to 100 |
| O=c1c2ncc(C#Cc3ccccn3)cc2nc2n1CC(C(F)(F)F)C2 (centres unmarked) [Example 1.17, 3-(pyridin-2-ylethynyl)-7-(trifluoromethyl)-7,8-dihydropyrido[3,2-d]pyrrolo[1,2-a]pyrimidin-10(6H)-one] | 100 to 300 |
| CC1(C)CCc2nc3cc(/C=C/c4cc(C#N)ccn4)ccc3c(=O)n2C1 [Example 4.1b, (E)-2-(2-(8,8-dimethyl-11-oxo-7,8,9,11-tetrahydro-6H-pyrido[2,1-b]quinazolin-3-yl)vinyl)isonicotinonitrile] | 300 to 1000 |
| CC1(C)CCc2nc3cc(NC(=O)Nc4ccccn4)ccc3c(=O)n2C1 [Example 6.12, 1-(8,8-dimethyl-11-oxo-7,8,9,11-tetrahydro-6H-pyrido[2,1-b]quinazolin-3-yl)-3-(pyridin-2-yl)urea] | 300 to 1000 |
| CC1CCc2nc3c(F)c(C#Cc4ccccn4)ccc3c(=O)n2CC1 (single isomer, unassigned) [Example 3.12a] | < 10 |
| CC1(C)CCc2nc3cc(C#Cc4ccc(F)nc4)ccc3c(=O)n2C1 [Example 2.88, 3-((6-fluoropyridin-3-yl)ethynyl)-8,8-dimethyl-8,9-dihydro-6H-pyrido[2,1-b]quinazolin-11(7H)-one] | < 10 |
| CC1(C)CC(F)c2nc3cc(C#Cc4ccccn4)cnc3c(=O)n2C1 (single isomer, unassigned) [Example 2.15a] | 30 to 100 |
| CCC1(F)CCc2nc3cc(C#Cc4ccccn4)cnc3c(=O)n2CC1 (centres unmarked) [Example 3.18, 8-ethyl-8-fluoro-3-(pyridin-2-ylethynyl)-7,8,9,10-tetrahydropyrido[3′,2′:4,5]pyrimido [1,2-a]azepin-12(6H)-one] | 30 to 100 |
| C/C(=C\c1ccc2c(=O)n3c(nc2c1)CCC(C)(C)C3)c1ccccn1 [Example 6.5, (E)-8,8-dimethyl-3-(2-(pyridin-2-yl)prop-1-en-1-yl)-8,9-dihydro-6H-pyrido[2,1-b]quinazolin-11(7H)-one] | 100 to 300 |
| CCC1CCc2nc3cc(C#Cc4ccccn4)cnc3c(=O)n2C1 (single isomer, unassigned) [Example 2.22b] | 100 to 300 |
| O=c1c2ccc(C#Cc3ccccn3)cc2nc2n1CCC(O)CC2 (single isomer, unassigned) [Example 3.2a] | 300 to 1000 |
| COC1CCc2nc3cc(C#Cc4ccccn4)cnc3c(=O)n2CC1 (centres unmarked) [Example 3.23, 8-methoxy-3-(pyridin-2-ylethynyl)-7,8,9,10-tetrahydropyrido[3′,2′:4,5]pyrimido [1,2-a]azepin-19(6H)-one] | 100 to 300 |
| CC1(C)CCc2nc3cc(C#Cc4ccc(C#N)cn4)ccc3c(=O)n2C1 [Example 2.39, 6-((8,8-dimethyl-11-oxo-7,8,9,11-tetrahydro-6H-pyrido[2,1-b]quinazolin-3-yl)ethynyl)nicotinonitrile] | 10 to 30 |
| O=c1c2ccc(C#Cc3ccccn3)cc2nc2n1CCC1(CCCO1)CC2 (single isomer, unassigned) [Example 3.3a] | 30 to 100 |
| CC1(C)CCc2nc3cc(Nc4ccccn4)ccc3c(=O)n2C1 [Example 6.2, 8,8-dimethyl-3-(pyridin-2-ylamino)-8,9-dihydro-6H-pyrido[2,1-b]quinazolin-11(7H)-one] | 300 to 1000 |
